Assay: molar heat capacity at constant pressure
Details: 101.33 kPa

CCC(O)CC [3-pentanol]
Details	molar heat capacity at constant pressure [J/K/mol]
152.99 K, Liquid	150.52
154.56 K, Crystal	105.87
155.94 K, Liquid	150.86
156.51 K, Crystal	107.42
158.46 K, Crystal	108.86
158.9 K, Liquid	151.16
160 K, Crystal	118.8
160.42 K, Crystal	110.34
161.85 K, Liquid	151.55
162.38 K, Crystal	111.71
164.37 K, Crystal	103.35
164.81 K, Liquid	152.15
166.37 K, Crystal	115.34
167.78 K, Liquid	153.56
168.31 K, Crystal	115.72
170 K, Crystal	110.3
170.23 K, Crystal	116.98
170.76 K, Liquid	159.22
172.17 K, Crystal	118.28
174.1 K, Crystal	119.45
176.01 K, Crystal	120.74
177.92 K, Crystal	121.98
179.81 K, Crystal	123.05
180 K, Crystal	123.2
181.69 K, Crystal	124.1
183.56 K, Crystal	125.1
185.42 K, Crystal	126.2
187.27 K, Crystal	127.45
189.1 K, Crystal	129.05
190 K, Crystal	129.8
190.93 K, Crystal	130.67
191.18 K, Crystal	146.69
192.74 K, Crystal	132.33
193.08 K, Crystal	133.23
194.53 K, Crystal	134.71
194.98 K, Crystal	136.27
196.31 K, Crystal	137.6
197.93 K, Crystal	143.45
198.06 K, Crystal	141.76
200 K, Crystal	155.5
206.59 K, Liquid	163.08
206.86 K, Liquid	162.81
208.54 K, Liquid	163.45
209.46 K, Liquid	164.31
210 K, Liquid	164.2
210.2 K, Liquid	164.21
211.87 K, Liquid	164.95
212.32 K, Liquid	165.57
213.52 K, Liquid	165.62
215.16 K, Liquid	167.02
215.17 K, Liquid	166.57
216.82 K, Liquid	167.31
217.99 K, Liquid	168.45
218.46 K, Liquid	168.22
220 K, Liquid	169.1
220.1 K, Liquid	169.14
220.8 K, Liquid	170.05
221.73 K, Liquid	170.07
223.36 K, Liquid	170.87
223.59 K, Liquid	171.64
224.98 K, Liquid	171.87
226.37 K, Liquid	173.5
226.59 K, Liquid	172.95
228.2 K, Liquid	173.95
229.13 K, Liquid	175.38
229.81 K, Liquid	174.99
230 K, Liquid	175.1
231.41 K, Liquid	176.24
231.88 K, Liquid	177.23
233 K, Liquid	177.29
234.59 K, Liquid	178.66
234.61 K, Liquid	179.15
236.17 K, Liquid	179.8
237.32 K, Liquid	181.22
237.75 K, Liquid	180.73
239.32 K, Liquid	182.03
240 K, Liquid	183.5
240.01 K, Liquid	183.55
240.89 K, Liquid	183.27
242.45 K, Liquid	184.57
242.69 K, Liquid	185.78
244 K, Liquid	185.93
245.34 K, Liquid	188.15
245.55 K, Liquid	187.34
247.09 K, Liquid	188.71
247.98 K, Liquid	190.62
248.63 K, Liquid	190.19
250 K, Liquid	191.4
250.16 K, Liquid	191.69
250.61 K, Liquid	193.22
251.68 K, Liquid	193.3
253.2 K, Liquid	194.61
253.21 K, Liquid	195.73
254.72 K, Liquid	195.45
255.8 K, Liquid	198.08
256.23 K, Liquid	197.32
257.73 K, Liquid	198.94
258.37 K, Liquid	201.08
259.23 K, Liquid	200.52
260 K, Liquid	201
260.72 K, Liquid	202.41
260.93 K, Liquid	204.02
262.21 K, Liquid	203.99
263.46 K, Liquid	207.15
263.69 K, Liquid	205.59
265.16 K, Liquid	207.37
265.98 K, Liquid	210.2
266.63 K, Liquid	209.14
268.09 K, Liquid	210.93
268.47 K, Liquid	213.3
269.54 K, Liquid	212.66
270 K, Liquid	213.6
270.95 K, Liquid	216.47
270.99 K, Liquid	214.5
272.44 K, Liquid	216.21
273.41 K, Liquid	219.31
273.87 K, Liquid	218
275.3 K, Liquid	219.86
275.85 K, Liquid	222.84
276.73 K, Liquid	221.67
278.15 K, Liquid	223.45
278.28 K, Liquid	226.05
279.56 K, Liquid	225.24
280 K, Liquid	227
280.68 K, Liquid	229.31
280.97 K, Liquid	227.16
282.37 K, Liquid	228.87
283.07 K, Liquid	232.43
283.76 K, Liquid	230.71
285.15 K, Liquid	232.47
285.44 K, Liquid	235.64
286.54 K, Liquid	234.44
287.8 K, Liquid	239.08
287.92 K, Liquid	236.08
289.29 K, Liquid	237.78
290 K, Liquid	238.7
290.66 K, Liquid	239.56
292.02 K, Liquid	241.24
293.38 K, Liquid	242.8
294.74 K, Liquid	244.64
296.09 K, Liquid	246.1
297.43 K, Liquid	247.9
298.15 K, Liquid	248.7
298.77 K, Liquid	249.27
300 K, Liquid	250.7
300.11 K, Liquid	250.87
301.44 K, Liquid	252.15
302.77 K, Liquid	254
304.09 K, Liquid	255.2
305.41 K, Liquid	256.63
306.73 K, Liquid	258.11
308.04 K, Liquid	259.35
309.35 K, Liquid	260.74

From the NIST ThermoML archive (doi:10.1021/je060411g)
